Patent US7875619B2, “Hetero substituted sodium channel blockers” (Parion Sciences, Inc., priority 2004, dated 2011)
Structures can show the parent of a compound that is named as a salt.

Target: T1, sodium channel (ENaC), canine bronchial epithelia (Canis lupus familiaris, UniProt A0A8I3MKE6+A0A8I3Q679+Q95165)
T1 construct: endogenous in cells; host or cells: primary canine bronchial epithelial cells cultured at air-liquid interface, mounted in Ussing chambers
T1 sequence (A0A8I3Q679 1-649): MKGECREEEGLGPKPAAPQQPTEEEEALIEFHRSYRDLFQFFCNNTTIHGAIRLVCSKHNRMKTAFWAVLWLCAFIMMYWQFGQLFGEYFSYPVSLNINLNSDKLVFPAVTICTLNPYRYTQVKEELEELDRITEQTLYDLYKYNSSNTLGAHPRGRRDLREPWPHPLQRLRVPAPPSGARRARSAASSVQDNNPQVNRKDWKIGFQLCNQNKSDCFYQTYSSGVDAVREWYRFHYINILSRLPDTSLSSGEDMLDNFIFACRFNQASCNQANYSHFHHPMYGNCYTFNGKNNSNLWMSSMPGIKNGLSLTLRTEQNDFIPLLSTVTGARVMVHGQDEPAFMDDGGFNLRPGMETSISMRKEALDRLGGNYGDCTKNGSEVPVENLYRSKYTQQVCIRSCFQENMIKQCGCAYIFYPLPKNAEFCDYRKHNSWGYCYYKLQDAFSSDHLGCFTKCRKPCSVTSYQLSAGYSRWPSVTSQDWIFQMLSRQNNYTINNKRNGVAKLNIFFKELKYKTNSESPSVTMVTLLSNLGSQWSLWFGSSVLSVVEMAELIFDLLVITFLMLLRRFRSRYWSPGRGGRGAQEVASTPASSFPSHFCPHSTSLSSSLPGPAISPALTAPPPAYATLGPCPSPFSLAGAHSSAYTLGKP
T1 sequence (Q95165 1-641): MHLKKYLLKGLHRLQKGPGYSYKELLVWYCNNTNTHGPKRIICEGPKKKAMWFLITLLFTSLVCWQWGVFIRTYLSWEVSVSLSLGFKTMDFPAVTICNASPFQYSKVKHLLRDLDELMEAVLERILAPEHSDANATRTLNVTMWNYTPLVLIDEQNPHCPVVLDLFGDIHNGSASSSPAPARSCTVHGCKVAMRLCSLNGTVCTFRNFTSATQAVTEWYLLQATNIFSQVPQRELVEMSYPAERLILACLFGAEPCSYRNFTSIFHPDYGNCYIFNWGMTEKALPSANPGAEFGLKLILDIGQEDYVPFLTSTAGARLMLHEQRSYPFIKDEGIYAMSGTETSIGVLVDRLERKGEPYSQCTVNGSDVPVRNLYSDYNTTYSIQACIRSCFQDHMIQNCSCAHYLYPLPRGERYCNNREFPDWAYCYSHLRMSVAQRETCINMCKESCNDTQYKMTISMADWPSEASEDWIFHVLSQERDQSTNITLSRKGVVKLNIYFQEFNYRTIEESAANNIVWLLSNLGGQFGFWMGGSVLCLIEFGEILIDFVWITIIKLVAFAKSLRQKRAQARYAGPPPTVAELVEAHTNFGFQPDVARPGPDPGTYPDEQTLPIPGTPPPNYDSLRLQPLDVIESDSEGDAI
T1 sequence (A0A8I3MKE6 1-646): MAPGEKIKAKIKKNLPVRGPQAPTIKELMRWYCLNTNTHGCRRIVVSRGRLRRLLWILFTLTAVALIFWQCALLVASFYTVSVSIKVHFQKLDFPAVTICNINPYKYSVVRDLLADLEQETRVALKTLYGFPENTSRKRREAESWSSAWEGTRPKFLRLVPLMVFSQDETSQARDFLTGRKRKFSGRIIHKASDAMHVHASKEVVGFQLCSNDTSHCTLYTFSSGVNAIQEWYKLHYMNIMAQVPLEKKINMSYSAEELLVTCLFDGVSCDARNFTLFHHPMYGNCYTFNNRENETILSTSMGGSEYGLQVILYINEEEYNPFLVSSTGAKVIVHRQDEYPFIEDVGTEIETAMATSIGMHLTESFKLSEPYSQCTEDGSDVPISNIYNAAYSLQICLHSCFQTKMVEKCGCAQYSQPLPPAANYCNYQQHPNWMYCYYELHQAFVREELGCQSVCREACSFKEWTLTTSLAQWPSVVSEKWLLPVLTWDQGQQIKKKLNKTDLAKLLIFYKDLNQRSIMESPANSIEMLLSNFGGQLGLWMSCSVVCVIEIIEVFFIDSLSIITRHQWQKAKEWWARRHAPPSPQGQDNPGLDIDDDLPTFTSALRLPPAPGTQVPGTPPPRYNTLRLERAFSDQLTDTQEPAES
Assay: In vitro measure of sodium channel blocking activity: inhibition of short circuit current (ISC) in airway epithelial monolayers in Ussing chambers
Format: cell-based
Settings: mean of N runs; for Fold Amiloride** (PSA 4022 = 100) Mean: relative potency for PSA 4022 = 100 using EC50 from PSA 4022 in same run
Procedure: One assay used to assess mechanism of action and/or potency of the compounds of the present invention involves the determination of lumenal drug inhibition of airway epithelial sodium currents measured under short circuit current (ISC) using airway epithelial monolayers mounted in Ussing chambers. Cells obtained from freshly excised human, dog, sheep or rodent airways are seeded onto porous 0.4 micron Snapwell™ Inserts (CoStar), cultured at air-liquid interface (ALI) conditions in hormonally defined media, and assayed for sodium transport activity (ISC) while bathed in Krebs Bicarbonate Ringer (KBR) in Using chambers. All test drug additions are to the lumenal bath with half-log dose addition protocols (from 1×10^−11 M to 3×10^−5M), and the cumulative change in ISC (inhibition) recorded. All drugs are prepared in dimethyl sulfoxide as stock solutions at a concentration of 1×10^−2 M and stored at −20° C. […] After the maximal concentration (5×10^−5 M) is administered, the lumenal bath is exchanged three times with fresh drug-free KBR solution, and the resultant ISC measured after each wash for approximately 5 minutes in duration. Reversibility is defined as the percent return to the baseline value for sodium current after the third wash. All data from the voltage clamps are collected via a computer interface and analyzed off-line.
Dose-effect relationships for all compounds are considered and analyzed by the Prism 3.0 program.
PSA 4022 was also tested in each assay as a positive control.

Structure (SMILES)	EC50	Fold Amiloride** (PSA 4022 = 100) Mean
Cl.N=C(N)NCCNC(=O)c1ccc(CCCCNC(=N)NC(=O)c2nc(Cl)c(N)nc2N)cc1 [PSA 11834, 4-{4-[N′-(3,5-diamino-6-chloropyrazine-2-carbonyl)guanidino]butyl}-N-(2-guanidinoethyl)benzamide hydrochloride]	3.68 nM	276
N=C(N)NCCNc1ccc(CCCCNC(=N)NC(=O)c2nc(Cl)c(N)nc2N)cc1 [PSA 17339, N-(3,5-diamino-6-chloropyrazine-2-carbonyl)-N′-{4-[(2-guanidinoethylamino)phenyl]butyl}guanidine trihydrochloride]	6.83 nM	
N=C(NCCCCc1ccc(N(CCN(C[C@H](O)CO)C[C@H](O)CO)C[C@H](O)CO)cc1)NC(=O)c1nc(Cl)c(N)nc1N [PSA 16311, N-(4{4-[{2-[N,N-bis-((2S)-2,3-dihydroxypropyl)amino]ethyl}-N-((2S)-2,3-dihydroxypropyl)amino]phenyl}butyl)-N′-(3,5-diamino-6-chloropyrazine-2-carbonyl)guanidine]	33.2 nM	25.6
N=C(NCCCCc1ccc(NCC(N)=O)cc1)NC(=O)c1nc(Cl)c(N)nc1N [PSA 15104, 2-(4-{4-[N′-(3,5-diamino-6-chloropyrazine-2-carbonyl)guanidino]-butyl}phenylamino)acetamide dihydrochloride]	19.1 nM	26.4
N=C(NCCCCc1ccc(NC[C@@H](O)CO)cc1)NC(=O)c1nc(Cl)c(N)nc1N [PSA 16722, N-(3,5-diamino-6-chloropyrazine-2-carbonyl)-N′-{4-[4-((2R)-2,3-dihydroxypropylamino)phenyl]butyl}guanidine]	22.8 nM	50.5
C[N+](C)(C)CCOc1ccc(CCCCNC(=N)NC(=O)c2nc(Cl)c(N)nc2N)cc1.Cl.[Cl-] [PSA 11223, N-(3,5-diamino-6-chloropyrazine-2-carbonyl)-N′-{4-[4-(2-chlorotrimethylammonium)ethoxyphenyl]butyl}guanidine hydrochloride]	14.7 nM	79.6
N=C(NCCCCc1ccc(NCCCC(=O)O)cc1)NC(=O)c1nc(Cl)c(N)nc1N [PSA 18345, 4-(4-{4-[N′-(3,5-diamino-6-chloropyrazine-2-carbonyl)guanidino]-butyl}phenylamino)butyric acid]	69 nM	12 .4
N=C(NCCCCc1ccc(NC(=O)CCN)cc1)NC(=O)c1nc(Cl)c(N)nc1N [PSA 14568, dihydrochloride]	3.92 nM	131
COC(=O)[C@@H](N)COc1ccc(CCCCNC(=N)NC(=O)c2nc(Cl)c(N)nc2N)cc1 [PSA 11041, 2-amino-3-(4-{4-[N′-(3,5-diamino-6-chloropyrazine-2-carbonyl)-guanidino]butyl}phenoxy)propionic acid methyl ester]	32 nM	38.6
N=C(N)NCCC(=O)Nc1ccc(CCCCNC(=N)NC(=O)c2nc(Cl)c(N)nc2N)cc1 [PSA 14984, N-(4-{4-[N′-(3,5-diamino-6-chloropyrazine-2-carbonyl)guanidino]-butyl}phenyl)-3-guanidinopropionamide dihydrochloride]	3.27 nM	268
COC(=O)C(N)CCOc1ccc(CCCCNC(=N)NC(=O)c2nc(Cl)c(N)nc2N)cc1 (centres unmarked) [PSA 17587, 2-amino-4-(4-{4-[N′-(3,5-diamino-6-chloropyrazine-2-carbonyl)-guanidino]butyl}phenoxy)butyric acid methyl ester hydrochloride]	19.4 nM	31.3

Continued by falling EC50, values first:

EC50	Fold Amiloride** (PSA 4022 = 100) Mean	Structure (SMILES)
25.4 nM	44.7	N=C(NCCCCc1ccc(NCCNC[C@@H](O)CO)cc1)NC(=O)c1nc(Cl)c(N)nc1N [PSA 16721, N-(4-{4-[{2-[((2R)-2,3-dihydroxypropyl)amino]ethylamino}phenyl)butyl-N′-(3,5-diamino-6-chloropyrazine-2-carbonyl)guanidinetrihydrochloride]
23.8 nM	44.4	N=C(NCCCCc1ccc(NCCCC(N)=O)cc1)NC(=O)c1nc(Cl)c(N)nc1N [PSA 18150, 4-(4-(4-[N′-(3,5-diamino-6-chloropyrazine-2-carbonyl)guanidino]-butyl}phenylamino)butyramide dihydrochloride]
15.4 nM	35.6	N=C(NCCCCc1ccc(NCCN)cc1)NC(=O)c1nc(Cl)c(N)nc1N [PSA 16436, N-{4-[4-(2-aminoethylamino)phenyl]butyl}-N′-(3,5-diamino-6-chloropyrazine-2-carbonyl)guanidine]
14.1 nM	90.2	N=C(NCCCCc1ccc(OCCNCC(N)C(N)=O)cc1)NC(=O)c1nc(Cl)c(N)nc1N (centres unmarked) [PSA 18704, 2-amino-3-[2-(4-{4-[N′-(3,5-diamino-6-chloropyrazine-2-carbonyl)-guanidino]butyl}phenoxy)ethylamino]propionamide tri-hydrochloride]
12.7 nM	64.9	N=C(NCCCCc1ccc(OCC(=O)N(CCO)CCO)cc1)NC(=O)c1nc(Cl)c(N)nc1N [PSA 16826, 2-(4-{4-[N′-(3,5-diamino-6-chloropyrazine-2-carbonyl)guanidino]-butyl}phenoxy)-N,N-bis-(2-hydroxyethyl)acetamide]
9.56 nM	132	CS(=O)(=O)N(c1ccc(CCCCNC(=N)NC(=O)c2nc(Cl)c(N)nc2N)cc1)S(C)(=O)=O [PSA 10316, N-(3,5-Diamino-6-chloropyrazine-2-carbonyl)-N′-[4-(4-bis(methanesulfonyl)aminophenyl)butyl]guanidine]
4.85 nM	287	Cl.N=C(N)NCC(O)COc1ccc(CCCCNC(=N)NC(=O)c2nc(Cl)c(N)nc2N)cc1 (centres unmarked) [PSA 11975, N-(3,5-diamino-6-chloropyrazine-2-carbonyl)-N′-{4-[4-(3-guanidino-2-hydroxypropoxy)phenyl]butyl}guanidine hydrochloride]
